We go through one compound from patent publication US8168596B2, “Use of cycloartane compounds for treating arthritis” (NuLiv Holding Inc., priority 2008, dated 2012).

The subject of data set [1] is MMP-13. As to the kind of experiment: Western blot of MMP-13 in pre-treated human chondrocytes (HCHs). The format is cell-based. The conditions noted are these: IL-1β-pre-treated HCH culture medium; compounds 0.1 μM, 48 h. For orientation: In western blotting, separated proteins are transferred to a membrane and probed.
For a further data set, the system named is MMP1 mRNA. As to the kind of experiment: RT-PCR of MMP1 mRNA expression in SW1353 cells. The format is cell-based, human. Conditions: for MMP1 mRNA expression after AS4 treatment followed by PMA: then 100 ng/mL PMA 24 h; for MMP1 mRNA expression after only AS4 treatment: 24 h, no PMA. The procedure: First of all, the interaction between TIMP1 mRNA expression and MMP1 mRNA expression in human SW1353 cell line after only AS4 treatment was studied. […] The SW1353 cells were then collected for RT-PCR analysis.
In a second testing, the effect of AS4 treatment followed by PMA treatment was also studied. The SW1353 cells were first treated with astragaloside IV (AS4) at a concentration of 0.01 μM, 0.1 μM, or 1 μM, followed by incubation for 24 hours. Then PMA was added into each well, followed by incubation for 24 hours. These SW1353 cells were also collected for RT-PCR analysis in the end of the second testing.
Total RNAs were isolated from the cultured human cells using NucleoSpin RNAII Kit (Macherey-Nagel Inc., PA, USA). Five μg of RNA was reverse transcribed in a total 20 μl transcription mixture. The reaction tube containing primers (oligo(dT)), RNA, 10 mM dNTP Mix, and DEPC-treated water was first incubated at 65° C. for 5 minutes. Eight μl master reaction mixture containing 4 μl 5× cDNA synthesis Buffer, 1 μl 0.1 M DTT, 1 μl RNase OUT™ (40U/μl), 1 μl DEPC-Treated water, and 1 μl SuperScript™II was then added into the reaction tube. The reaction tube was then incubated at 50° C. for 60 minutes, followed by incubation at 85° C. for 5 minutes. Finally, 1 μl RNase H was added at 37° C. and the reaction tube was incubated for 20 minutes. The resulting cDNA was further amplified by PCR. The relevant primers for the following PCR reaction were listed below.
(i) The MMP1 forward primer is 5′-ACTCTGGAGTAATGTCACACCT-3′ (SEQ ID NO: 1), and the MMP1 reverse primer is 5′-GTTGGTCCACCTTTCATCTTCA-3′ (SEQ ID NO: 2);
In addition, the PCR reaction of MMP1 cDNA was preformed as follows: 95° C. for 5 min, followed by 35 cycles of 94° C. for 30 sec, 60° C. for 30 sec, and 72° C. for 30 sec, and then 72° C. for 10 min followed by maintaining at 4° C. Similarly, the PCR reaction of TIMP1 cDNA was performed as follows: 94° C. for 5 min, followed by 35 cycles of 94° C. for 30 sec, 60° C. for 30 sec, and 72° C. for 30 sec, and then 72° C. for 10 min followed by maintaining at 4° C. The PCR reaction of GAPDH cDNA was performed as follows: 94° C. for 5 min, followed by 18 cycles of 94° C. for 30 sec, 54° C. for 30 sec, and 72° C. for 30 sec, and then 72° C. for 30 sec followed by maintaining at 4° C. These PCR products were analyzed by electrophoresis on a 1.5% gel.

For another data set, the system named is SW1353 cells. As to the kind of experiment: Cell viability assay (Cell Counting Kit 8). The format is cell-based, human. The conditions noted are these: AS4 0.01-20 μM. As to the method: The culture medium was replaced every other day. After confluence, the cells were subcultured following trypsinization. For subcultures, cells were harvested after brief treatment with 0.1% trypsin/ethylenediaminetetraacetic acid (EDTA) solution and seeded at a dilution of 1:10. Cells between passages 12 and 45 were used for studies.
Then SW1353 cells were treated with astragaloside IV (AS4) at a concentration of 0.01 μM, 0.1 μM, 1 μM, 2 μM, 5 μM, 10 μM or 20 μM, followed by incubating for 24 hours or 48 hours. Later, the SW1353 cell culture in each well was treated with 10 μl Cell Counting Kit 8 solution (Dojindo molecular technologies, Gaithersburg, Md., USA), followed by incubation at 37° C. in a humidified incubator with 5% CO2 for 1-4 hours. Then, the absorbance of the SW1353 cell cultures was detected by an EIA reader at 450 nm. Compared with that of the control group, the viability of the experimental groups was analyzed.

The test system of data set [2] is ERK1 (P44) and ERK2 (P42). As to the kind of experiment: Western blotting of ERK1/ERK2 in PMA-treated SW1353 cells. The format is cell-based, human. Conditions: PMA 100 ng/mL 2 h, then 1 μM AS4 24 h; value without AS4 2.7.
Data set [3] concerns MMP-13. Nature of the data set: Western blot of MMP-13 in PMA- or IL-1β-pre-treated SW1353 cells (Example 6). The format is cell-based, human. The conditions noted are these: 0.1 μM, 48 h. The procedure: The cells were then plated on 6-cm dishes at a density of 1×10^6 cells/dish for 24 hours prior to any treatment. At the beginning of the experiment, the cells were pre-treated with 100 ng/mL PMA or 10 ng/mL IL-1β for 24 hours. The cells were then treated 0.1 μM Dexamethasone with, various astragaloside compounds (0.1 μM) or extracts of Astragalus membranaceous (1 μg/mL) at indicated dosages for another 48 hours. For control sample, 0.1% DMSO was used as a negative control for these experiments. The conditioned culture mediums were then centrifuged, 2-fold concentrated and collected for assay of collagens or MMPs secreted into the culture medium.
Western blotting analysis was carried out on both cultured medium and cell lysates, as follows. The cells were washed and lysed in 0.2 mL of lysis buffer (1% NP-40, 50 mM Tris-HCl, pH 7.4, 180 mM NaCl, 1 mM EDTA, 1 mM PMSF, 1 mM NaF, 10 mM Na3VO4) for 30 min at 4° C. After centrifuging at 17500 g for 15 min, the supernatants of cell lysate were also collected. Protein concentration of the samples were measured using the bicinchoninic acid (BCA) protein assay kit according to the manufacturer's protocol (Pierce, Rockford, Ill., USA). Equal amount of protein samples of concentrated conditioned medium (100 μg) or cell lysate supernatants (50 μg) were mixed with an appropriate volume of 4×SDS sampling buffer and separated by 8% SDS-PAGE gel. The protein bands separated in the SDS-PAGE gel were blotted onto a polyvinylidene fluoride (PVDF) membrane. The blotted PVDF membrane was washed twice and blocked in freshly prepared Tris-buffered saline (TBS) containing 0.1% Tween-20 and 7% skim milk (TBST) for 2 hours at room temperature. […] Horseradish peroxidase-conjugated anti-goat antibody was used as secondary antibody. Signals were visualized by an enhanced chemiluminescence kit (Clonetech, Palo Alto, Calif., USA) followed by exposure to X-ray films.

As for `CC(C)(O)[C@@H]1CC[C@](C)([C@H]2[C@@H](O)C[C@@]3(C)[C@@H]4C[C@H](O[C@@H]5O[C@H](CO)[C@@H](O)[C@H](O)[C@H]5O)[C@H]5C(C)(C)[C@@H](O[C@@H]6OC[C@@H](O)[C@H](O)[C@H]6O)CC[C@@]56C[C@@]46CC[C@]23C)O1` [AS4, Astragaloside IV], the “MMP-13, Western blot, relative to Ctrl 1.00” value turned out to be 0.55 in the data set on MMP-13 [1], 1.10 in the data set on MMP-13 [3] (IL-1β-pre-treated SW1353 cell extract), 0.56 in the data set on MMP-13 [3] (IL-1β-pre-treated SW1353 culture medium) and 0.79 in the data set on MMP-13 [3] (PMA-pre-treated SW1353 cell extract). Besides, the “MMP1 mRNA expression after AS4 treatment followed by PMA” value was 0.98 in the data set on MMP1 mRNA (AS4 0.01 μM 24 h), 0.84 in the data set with MMP1 mRNA (AS4 0.1 μM 24 h) and 0.53 in the data set on MMP1 mRNA (AS4 1 μM 24 h). Also, the results for the “MMP1 mRNA expression after only AS4 treatment” value in the data set with MMP1 mRNA (AS4 0.01 μM), in the data set on MMP1 mRNA (AS4 0.1 μM) and in the data set on MMP1 mRNA (AS4 1 μM) were 0.97, 1.07 and 0.93, respectively. In addition, in the data set on SW1353 cells (24 or 48 hours), the “toxicity to SW1353 cells” value is given as “non-toxic”. In addition, the “cell proliferation compared with control group” value with SW1353 cells (24 hours) and with SW1353 cells (48 hours) was “did not change significantly” throughout. The “value of expression of ERK1 (P44) and ERK2 (P42)” value in data set [2] is 1.7.
